{"source": "paper PMC3760172", "about": "(Bioorganic & medicinal chemistry, 2013)", "target": "rat nNOS (Rattus norvegicus, UniProt P29476)", "assay": "NOS inhibition assay", "assay_type": "biochemical", "conditions": "compared with inhibitor 27"}
{"molecule": "Cc1cc(N)nc(COc2cccc(NCCc3cccc(F)c3)c2)c1", "note": "[Compound 24]", "values": [{"measurement": "decrease in potency (nNOS) relative to 27", "value": 54, "unit": "fold"}]}
